The values below come from patent publication US6407041B1, “Substituted 2,4-diamino-1,3,5-triazines” (Bayer Aktiengesellschaft, priority 1997, dated 2002).

Data set [1] has as its system Alopecurus. Description: Post-emergence test/greenhouse. To be noted: 1000 g of ai./ha, test plants 5-15 cm, rated after three weeks vs untreated control, 0%=no effect, 100%=total destruction. The class given is in vivo. The procedure:
(§1) Solvent: 5 parts by weight of acetone
(§2) Emulsifier: 1 part by weight of alkylaryl polyglycol ether
(§3) To produce a suitable preparation of active compound, I part by weight of active compound is mixed with the stated amount of solvent, the stated amount of emulsifier is added and the concentrate is diluted with water to the desired concentration.
(§4) Test plants having a height of 5-15 cm are sprayed with the preparation of active compound such that the particular amounts of active compound desired are applied per unit area. The concentration of the spray liquor is chosen so that the particular amounts of active compound desired are applied in 1000 l of water/ha.
(§5) After three weeks, the degree of damage to the plants is rated in % damage in comparison with the development of the untreated control.
(§6) 0%=no effect (like untreated control)

The subject of data set [2] is Galium. Briefly: Post-emergence test/greenhouse. As to conditions: 1000 g of ai./ha, test plants 5-15 cm, rated after three weeks vs untreated control, 0%=no effect, 100%=total destruction. The class given is in vivo. The procedure:
as §1, §2, §3, §4, §5, §6

The subject of data set [3] is Amaranthus. Description: Post-emergence test/greenhouse. The class given is in vivo. As to conditions: 1000 g of ai./ha, test plants 5-15 cm, rated after three weeks vs untreated control, 0%=no effect, 100%=total destruction. The procedure: as §1, §2, §3, §4, §5, §6
The test system of data set [4] is Abutilon. Briefly: Post-emergence test/greenhouse. In kind it is in vivo. As to conditions: 1000 g of ai./ha, test plants 5-15 cm, rated after three weeks vs untreated control, 0%=no effect, 100%=total destruction. The procedure:
as §1, §2, §3, §4, §5, §6

Data set [5] deals with Sinapis. Briefly: Post-emergence test/greenhouse. In kind it is in vivo. As to conditions: 1000 g of ai./ha, test plants 5-15 cm, rated after three weeks vs untreated control, 0%=no effect, 100%=total destruction. How it is done: as §1, §2, §3, §4, §5, §6
Data set [6] relates to weeds. Briefly: Pre-emergence test, overall action. The class given is in vivo. To be noted: result in words. The procedure:
as §1, §2
(§7) To produce a suitable preparation of active compound, 1 part by weight of active compound is mixed with the stated amount of solvent, the stated amount of emulsifier is added and the concentrate is diluted with water to the desired concentration.
(§8) Seeds of the test plants are sown in normal soil. After about 24 hours, the soil is sprayed with the preparation of active compound such that the particular amounts of active compound desired are applied per unit area. The concentration of the spray liquor is chosen so that the particular amounts of active compound desired are applied in 1000 l of water/ha.
as §5, §6

The test system of data set [7] is weeds. Description: Post-emergence test, overall action. The class given is in vivo. As to conditions: result in words. How it is done: as §1, §2, §3, §4, §5, §6
Data set [8] has as its system Alopecurus. Description: Pre-emergence test (greenhouse). In kind it is in vivo. As to conditions: 1000 g of ai./ha, rated after three weeks vs untreated control, 0%=no effect, 100%=total destruction. How it is done:
as §1, §2, §7, §8, §5, §6

In data set [9] the test system is Galium. Description: Pre-emergence test (greenhouse). The class given is in vivo. To be noted: 1000 g of ai./ha, rated after three weeks vs untreated control, 0%=no effect, 100%=total destruction. The procedure:
as §1, §2, §7, §8, §5, §6

Data set [10] relates to Amaranthus. Briefly: Pre-emergence test (greenhouse). In kind it is in vivo. To be noted: 1000 g of ai./ha, rated after three weeks vs untreated control, 0%=no effect, 100%=total destruction. The procedure: as §1, §2, §7, §8, §5, §6
Data set [11] concerns Abutilon. Briefly: Pre-emergence test (greenhouse). The class given is in vivo. As to conditions: 1000 g of ai./ha, rated after three weeks vs untreated control, 0%=no effect, 100%=total destruction. How it is done:
as §1, §2, §7, §8, §5, §6

A further data set has as its system Setaria. Description: Pre-emergence test (greenhouse). In kind it is in vivo. To be noted: 1000 g of ai./ha, rated after three weeks vs untreated control, 0%=no effect, 100%=total destruction. The procedure: as §1, §2, §7, §8, §5, §6
The subject of data set [12] is Sinapis. Briefly: Pre-emergence test (greenhouse). In kind it is in vivo. As to conditions: 1000 g of ai./ha, rated after three weeks vs untreated control, 0%=no effect, 100%=total destruction. How it is done: as §1, §2, §7, §8, §5, §6
A further data set has as its system Maize. Briefly: Pre-emergence test (greenhouse), crop plant. The class given is in vivo. As to conditions: 1000 g of ai./ha, rated after three weeks vs untreated control, 0%=no effect, 100%=total destruction. The procedure:
as §1, §2, §7, §8, §5, §6

The term melting point denotes the temperature of the solid-liquid transition.

With `CCC(COCc1cccc(Cl)c1)Nc1nc(N)nc(C(C)(C)F)n1` (centres unmarked) [drawing 498], the “degree of damage to the plants, Alopecurus” value (from here on “degree of damage … Alopecurus”) in the data set with Alopecurus [1] came to 100%. Moreover, in the data set on Galium [2], the “degree of damage to the plants, Galium” value worked out at 95%. Also, in the data set on Amaranthus [3], the “degree of damage to the plants, Amaranthus” value (from here on “degree of damage … Amaranthus”) worked out at 100%. In addition, the “degree of damage to the plants, Abutilon” value in the data set on Abutilon [4] turned out to be 100%. Further, the “degree of damage to the plants, Sinapis” value in the data set on Sinapis [5] was 100%.
Consider `CCC(COCc1cccc(Cl)c1)Nc1nc(N)nc(C(C)(C)F)n1` (centres unmarked) [Example 14], for which the melting point worked out at 104 °C. For the same compound, in the data set with weeds [6], the action against weeds result is “very strong action against weeds”. Besides, the action against weeds result in the data set on weeds [7] is “very strong action against weeds”.
Consider `CCC(COCc1ccccc1)Nc1nc(N)nc(C(C)(C)F)n1` (centres unmarked) [drawing 495], for which the “degree of damage … Alopecurus” value with Alopecurus [8] worked out at 100%. Moreover, in the data set on Galium [9], the “degree of damage to the plants, Galium” value is 100%. Also, the “degree of damage … Amaranthus” value in the data set with Amaranthus [10] is 100%. The “degree of damage to the plants, Abutilon” value in the data set on Abutilon [11] is on record as 100%. Moreover, the “degree of damage to the plants, Setaria” value with Setaria came to 100%. Besides, the “degree of damage to the plants, Sinapis” value in the data set with Sinapis [12] was found to be 100%.
On to `CCc1nc(N)nc(NC(CC)COCc2ccc(F)cc2)n1` (racemic) [Example 1, 2-amino-4-ethyl-6-[1-(4-fluorobenzyloxymethyl)-propylamino]-1,3,5-triazine], for which the melting point is 96 °C.
As to `CCC(COCc1cccc(Cl)c1)Nc1nc(N)nc(C(C)(C)F)n1` (centres unmarked) [drawing 496], the “degree of damage to the plants, Maize” value in the data set on Maize was found to be 10%. In addition, in the data set with Alopecurus [8], the “degree of damage … Alopecurus” value was found to be 95%. For the same compound, the “degree of damage … Amaranthus” value in the data set on Amaranthus [10] turned out to be 100%. Also, in the data set with Abutilon [11], the “degree of damage to the plants, Abutilon” value came out at 95%. Moreover, the “degree of damage to the plants, Sinapis” value in the data set on Sinapis [12] turned out to be 90%.
Consider `CCC(COCc1ccccc1)Nc1nc(N)nc(C(C)(C)F)n1` (centres unmarked) [drawing 497], for which the “degree of damage … Alopecurus” value in the data set on Alopecurus [1] was 95%. The “degree of damage to the plants, Galium” value with Galium [2] was 90%. Also, the “degree of damage … Amaranthus” value in the data set with Amaranthus [3] is 100%. In the data set on Abutilon [4], the “degree of damage to the plants, Abutilon” value amounted to 100%. In addition, the “degree of damage to the plants, Sinapis” value in the data set with Sinapis [5] came out at 100%.
`CCC(COCc1ccccc1)Nc1nc(N)nc(C(C)(C)F)n1` (centres unmarked) [Example 8] displayed a melting point of 114 °C. Moreover, the action against weeds entry in the data set with weeds [6] was “very strong action against weeds”. Also, the action against weeds result in the data set with weeds [7] is on record as “very strong action against weeds”.
`CCC(COCc1ccccc1C)Nc1nc(NC(C)=O)nc(C(C)(C)F)n1` (racemic) [Example 2] yielded a melting point of 108 °C.
